Results as given in patent publication US20120214822A1 (ASTRAZENECA AB, priority 2007, published 2012).
Counter-ions that a name gives are not always drawn.

Target: human active recombinant p38α-6His tagged (Homo sapiens, UniProt Q16539)
Assay: P38 Alpha Enzyme Assay (AlphaScreen, biotinylated-ATF2 substrate);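 further: 0.5 nM final p38α, reaction started with ATP and run 45 min at 37 °C, phospho-ATF2 read by antibody-based AlphaScreen, background wells quenched with EDTA before ATP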
Type: biochemical
Settings: p38 alpha enzyme inhibition; means of replicate determinations; 4 h pre-incubation at 37° C.; SD of assay 0.2-0.3 log units

human active recombinant p38α-6His tagged, sequence (Q16539 whole entry): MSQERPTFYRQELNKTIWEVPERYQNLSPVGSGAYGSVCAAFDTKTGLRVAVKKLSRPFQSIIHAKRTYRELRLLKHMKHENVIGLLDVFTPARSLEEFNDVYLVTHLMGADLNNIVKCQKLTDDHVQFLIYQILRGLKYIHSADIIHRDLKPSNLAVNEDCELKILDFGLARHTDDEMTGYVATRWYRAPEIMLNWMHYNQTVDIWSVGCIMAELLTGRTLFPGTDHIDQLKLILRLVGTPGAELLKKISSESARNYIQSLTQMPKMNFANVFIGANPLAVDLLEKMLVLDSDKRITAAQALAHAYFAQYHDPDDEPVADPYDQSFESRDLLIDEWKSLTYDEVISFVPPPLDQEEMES

Row | Compound | pIC50
1 | Cc1ccc(C(=O)NC2CC2)cc1-n1ccnc(NC(C)(C)c2ccccc2OC(C)CN2CCN(C)CC2)c1=O (centres unmarked) [Example 209, N-Cyclopropyl-4-methyl-3-[3-[[1-methyl-1-[2-[1-methyl-2-(4-methyl-1-piperazinyl)ethoxy]phenyl]ethyl]amino]-2-oxo-1(2H)-pyrazinyl]-benzamide] | 8.9
2 | CC(=O)N1CCN(C[C@H](C)[C@@H](Nc2nccn(-c3cc(C(=O)NC4CC4)ccc3C)c2=O)c2ccccc2)CC1 [Example 140, 3-[3-[[(1R,2S)-3-(4-Acetyl-1-piperazinyl)-2-methyl-1-phenylpropyl]amino]-2-oxo-1(2H)-pyrazinyl]-N-cyclopropyl-4-methyl-benzamide] | 8.6
3 | Cc1ccc(C(=O)NC2CC2)cc1-n1ccnc(N[C@@H](c2ccccc2)[C@@H](C)CNC(C)(C)CO)c1=O [Example 193, N-Cyclopropyl-3-[3-[[(1R,2S)-3-[(2-hydroxy-1,1-dimethylethyl)amino]-2-methyl-1-phenylpropyl]amino]-2-oxo-1(2H)-pyrazinyl]-4-methyl-benzamide] | 9.3
4 | Cc1ccc(C(=O)NC2CC2)cc1-n1ccnc(N[C@@H](c2ccccc2)[C@@H](C)CN2CCC(N(C)C)CC2)c1=O [Example 176, N-Cyclopropyl-3-[3-[[(1R,2S)-3-[4-(dimethylamino)-1-piperidinyl]-2-methyl-1-phenylpropyl]amino]-2-oxo-1(2H)-pyrazinyl]-4-methyl-benzamide] | 8.7
5 | Cc1ccc(C(=O)NC2CC2)cc1-n1ccnc(NCC(c2ccccc2)N2CCCC2)c1=O (centres unmarked) [Example 63, N-Cyclopropyl-4-methyl-3-[2-oxo-3-[[2-phenyl-2-(1-pyrrolidinyl)ethyl]amino]-1(2H)-pyrazinyl]-benzamide] | 6.3
6 | COc1ccccc1C1CCCN1c1nccn(-c2cc(C(=O)NC3CC3)ccc2C)c1=O (centres unmarked) [Example 97, N-Cyclopropyl-3-[3-[2-(2-methoxyphenyl)-1-pyrrolidinyl]-2-oxo-1(2H)-pyrazinyl]-4-methyl-benzamide] | 8.7
7 | Cc1ccc(C(=O)NC2CC2)cc1-n1ccnc(NC(C)(C)c2ccccc2OCCCN2CCN(C)CC2)c1=O [Example 208, N-Cyclopropyl-4-methyl-3-[3-[[1-methyl-1-[2-[3-(4-methyl-1-piperazinyl)propoxy]phenyl]ethyl]amino]-2-oxo-1(2H)-pyrazinyl]-benzamide] | 9.1
8 | Cc1ccc(C(=O)NC2CC2)cc1-n1ccnc(N[C@@H](c2ccccc2)[C@@H](C)CN2CCC[C@H](O)C2)c1=O [Example 185, N-Cyclopropyl-3-[3-[[(1R,2S)-3-[(3S)-3-hydroxy-1-piperidinyl]-2-methyl-1-phenylpropyl]amino]-2-oxo-1(2H)-pyrazinyl]-4-methyl-benzamide] | 9.1
9 | Cc1ccc(C(=O)NC2CC2)cc1-n1cc(Cl)nc(N2CCN(C)CC2)c1=O [Example 107, 3-[5-Chloro-3-(4-methyl-1-piperazinyl)-2-oxo-1(2H)-pyrazinyl]-N-cyclopropyl-4-methyl-benzamide] | 6.1
10 | CONC(=O)c1ccc(C)c(-n2ccnc(N3CCCC3)c2=O)c1 [Example 132, N-Methoxy-4-methyl-3-[2-oxo-3-(1-pyrrolidinyl)-1(2H)-pyrazinyl]-benzamide] | 7.5
11 | Cc1ccc(C)c(CNc2nccn(-c3cc(C(=O)NC4CC4)ccc3C)c2=O)c1 [Example 98, N-Cyclopropyl-3-[3-[[(2,5-dimethylphenyl)methyl]amino]-2-oxo-1(2H)-pyrazinyl]-4-methyl-benzamide] | 7.8
12 | Cc1ccc(C(=O)NC2CC2)cc1-n1ccnc(N2CCC(c3ccccc3)C2)c1=O (centres unmarked) [Example 54, N-Cyclopropyl-4-methyl-3-[2-oxo-3-(3-phenyl-1-pyrrolidinyl)-1(2H)-pyrazinyl]-benzamide] | 6.5
13 | Cc1ccc(C(=O)NC2CC2)cc1-n1ccnc(NC(C)(C)c2ccccc2OCCC2CCNCC2)c1=O [Example 217, N-Cyclopropyl-4-methyl-3-[3-[[1-methyl-1-[2-[2-(4-piperidinyl)ethoxy]phenyl]ethyl]amino]-2-oxo-1(2H)-pyrazinyl]-benzamide] | 9.6
14 | Cc1ccc(C(=O)NC2CC2)cc1-n1ccnc(NC(CCN2CCOCC2)c2ccccc2)c1=O (centres unmarked) [Example 77, N-Cyclopropyl-4-methyl-3-[3-[[3-(4-morpholinyl)-1-phenylpropyl]amino]-2-oxo-1(2H)-pyrazinyl]-benzamide] | 7.5
15 | Cc1ccc(C(=O)NC2CC2)cc1-n1ccnc(NCc2cccc(CN)c2)c1=O [Example 124, 3-[3-[[[3-(Aminomethyl)phenyl]methyl]amino]-2-oxo-1(2H)-pyrazinyl]-N-cyclopropyl-4-methyl-benzamide] | 6.9
16 | Cc1ccc(C(=O)NC2CC2)cc1-n1ccnc(N2CCCC(c3ccccc3)C2)c1=O (centres unmarked) [Example 60, N-Cyclopropyl-4-methyl-3-[2-oxo-3-(3-phenyl-1-piperidinyl)-1(2H)-pyrazinyl]-benzamide] | 7.3
17 | Cc1ccc(C(=O)NC2CC2)cc1-n1ccnc(N[C@H](c2ccccc2)C2CCNCC2)c1=O [Example 103, N-Cyclopropyl-4-methyl-3-[2-oxo-3-[[(S)-phenyl-4-piperidinylmethyl]amino]-1(2H)-pyrazinyl]-benzamide trifluoroacetate] | 6.1
18 | Cc1ccc(C(=O)NC2CC2)cc1-n1ccnc(NC(CCO)c2ccccc2)c1=O (centres unmarked) [Example 83, N-Cyclopropyl-3-[3-[(3-hydroxy-1-phenylpropyl)amino]-2-oxo-1(2H)-pyrazinyl]-4-methyl-benzamide] | 7.7
19 | CONC(=O)c1ccc(C)c(-n2ccnc(NCc3ccccc3CN3CCN(C)CC3)c2=O)c1 [Example 111, N-Methoxy-4-methyl-3-[3-[[[2-[(4-methyl-1-piperazinyl)methyl]phenyl]methyl]amino]-2-oxo-1(2H)-pyrazinyl]-benzamide] | 7.1
20 | Cc1ccc(C(=O)NC2CC2)cc1-n1ccnc(NCc2ccccn2)c1=O [Example 23, N-Cyclopropyl-4-methyl-3-[2-oxo-3-[(2-pyridinylmethyl)amino]-1(2H)-pyrazinyl]-benzamide] | 6.9
21 | Cc1ccc(C(=O)NC2CC2)cc1-n1ccnc(NCc2ccccc2-c2ccccc2)c1=O [Example 44, 3-[3-[([1,1′-Biphenyl]-2-ylmethyl)amino]-2-oxo-1(2H)-pyrazinyl]-N-cyclopropyl-4-methyl-benzamide] | 7.6

Other lines, results leading:

Row | pIC50 | Compound
22 | 9.8 | Cc1c(F)cc(C(=O)NC2CC2)cc1-n1ccnc(NC(C)(C)c2ccccc2OCCNCC(=O)O)c1=O [Example 312, N-(2-{2-[1-({4-[5-(Cyclopropylcarbamoyl)-3-fluoro-2-methylphenyl]-3-oxo-3,4-dihydropyrazin-2-yl}amino)-1-methylethyl]phenoxy}ethyl)glycine]
23 | 10.2 | Cc1c(F)cc(C(=O)NC2CC2)cc1-n1ccnc(NC(C)(C)c2ccccc2OCCNC(C)C)c1=O [Example 254, N-Cyclopropyl-3-fluoro-4-methyl-5-[3-[[1-methyl-1-[2-[2-[(1-methylethyl)amino]ethoxy]phenyl]ethyl]amino]-2-oxo-1(2H)-pyrazinyl]-benamide]
24 | 9.3 | CNCCOc1c(F)cccc1C1(Nc2nccn(-c3cc(C(=O)NC4CC4)ccc3C)c2=O)CC1 [Example 287, N-Cyclopropyl-3-{3-[(1-{3-fluoro-2-[2-(methylamino)ethoxy]phenyl}cyclopropyl)amino]-2-oxopyrazin-1(2H)-yl}-4-methylbenzamide]
25 | 9 | Cc1cccc([C@H](Nc2nccn(-c3cc(C(=O)NC4CC4)ccc3C)c2=O)[C@@H](C)CO)c1 [Example 273, N-Cyclopropyl-3-[3-[[(1R,2R)-3-hydroxy-1-(3-methylphenyl)-2-methylpropyl]amino]-2-oxo-1(2H)-pyrazinyl]-4-methyl-benzamide]
26 | 10 | Cc1ccc(C(=O)NC2CC2)cc1-n1ccnc(NC2(c3ccccc3OC[C@@H](O)CNCCO)CC2)c1=O [Example 302, N-Cyclopropyl-3-[3-({1-[2-({(2S)-2-hydroxy-3-[(2-hydroxyethyl)amino]propyl}oxy)phenyl]cyclopropyl}amino)-2-oxopyrazin-1(2H)-yl]-4-methylbenzamide]
27 | 10.2 | CCNC[C@H](O)COc1ccccc1C(C)(C)Nc1nccn(-c2cc(C(=O)NC3CC3)cc(F)c2C)c1=O [Example 309, N-Cyclopropyl-3-[3-{[1-(2-{[(2S)-3-(ethylamino)-2-hydroxypropyl]oxy}phenyl)-1-methylethyl]amino}-2-oxopyrazin-1(2H)-yl]-5-fluoro-4-methylbenzamide]
28 | 9.9 | CNCCOc1ccc(F)cc1C1(Nc2nccn(-c3cc(C(=O)NC4CC4)ccc3C)c2=O)CC1 [Example 278, N-Cyclopropyl-3-[3-[[1-[5-fluoro-2-[2-(methylamino)ethoxy]phenyl]cyclopropyl]amino]-2-oxo-1(2H)-pyrazinyl]-4-methyl-benzamide]
29 | 9.5 | CNCCSc1ccccc1C(C)(C)Nc1nccn(-c2cc(C(=O)NC3CC3)cc(F)c2C)c1=O [Example 320, N-Cyclopropyl-3-fluoro-4-methyl-5-[3-{[1-methyl-1-(2-{[2-(methylamino)ethyl]sulfanyl}phenyl)ethyl]amino}-2-oxopyrazin-1(2H)-yl]benzamide]
30 | 8 | CNCCOc1ccccc1C1CCCN1c1nccn(-c2cc(C(=O)NC3CC3)ccc2C)c1=O (centres unmarked) [Example 327, N-Cyclopropyl-4-methyl-3-[3-(2-{2-[2-(methylamino)ethoxy]phenyl}pyrrolidin-1-yl)-2-oxopyrazin-1(2H)-yl]benzamide Trifluoroacetate salt]
31 | 9.1 | Cc1ccc(C(=O)NC2CC2)cc1-n1ccnc(NC2(c3ccccc3OCCN3CCN(CCO)CC3)CC2)c1=O [Example 232, N-Cyclopropyl-3-[3-[[1-[2-[2-[4-(2-hydroxyethyl)-1-piperazinyl]ethoxy]phenyl]cyclopropyl]amino]-2-oxo-1(2H)-pyrazinyl]-4-methyl-benzamide]
32 | 8.2 | CNCCOc1ccccc1C(C)(C)Nc1nccn(-c2cc(C(=O)NCCF)ccc2C)c1=O [Example 225, N-(2-Fluoroethyl)-4-methyl-3-[3-[[1-methyl-1-[2-[2-(methylamino)ethoxy]phenyl]ethyl]amino]-2-oxo-1(2H)-pyrazinyl]-benzamide]
